Results as given in patent US9598459B2, “Pharmaceutical compositions and methods” (priority 2015, dated 2017).
Values joined by “and” are separate entries in the source; they are usually repeats but may differ in a detail not shown here. Equal entries are not always repeated.

Assays:
[1] = test system: Norwalk virus (replicon) GT1; test: Norwalk virus replicon (GT1) in HG23, RNA hybridization; type: cell-based, Norwalk virus (human norovirus)
MNV MNV-1 = test: Murine norovirus (MNV-1) antiviral screen in RAW267.4; type: cell-based; conditions: MNV-1, RAW267.4, Example 11; for EC50: unit from Conc. Range
RAW267.4 = test: Toxicity in RAW267.4 cells (neutral red); conditions: Neutral Red (Toxicity), Example 11
in vitro [2] = conditions: human
[3] = Toxicity in RAW267.4 cells (neutral red); conditions: mouse, RAW267.4 cells, CC50, Neutral Red (Toxicity), Example 11
[4] = test system: Hepatitis C virus (replicon) clone B (genotype 1a); test: HCV genotype 1a HuH-7 clone B subgenomic replicon RNA replication; type: cell-based, human hepatitis C virus; conditions: 10 μM
[5] = test system: cellular ribosomal RNA (rRNA) synthesis; test: Cellular ribosomal RNA synthesis in HCV replicon cells (TaqMan RT-qPCR); type: cell-based; conditions: 10 μM
OM-10.1 cells = test: Toxicity in OM-10.1 (Cell Titer 96); conditions: for TOXICITY VALUES (Cell Titer 96): SAMPLE 1-3, MEAN
[6] = Toxicity in OM-10.1 (Cell Titer 96); conditions: human, OM-10.1 cells
HIV-1 LAV = test: Inhibition of inducible HIV-1 LAV replication in OM-10.1 (RT values); type: cell-based, human immunodeficiency virus type 1; conditions: for RT Values: SAMPLE 1-3, MEAN
in vitro [7] = conditions: human; remark: listed apart in the source
in vitro [8] = conditions: African green monkey, CC50
[9] = Cytotoxicity control on HepG2 (CellTiter MTS); conditions: human, HepG2 cells
Cytotoxicity on CCRF-CEM = conditions: human, CCRF-CEM cells, CC50, Cytotoxicity control, CCRF-CEM, CellTiter MTS
[10] = Norwalk virus, GT1, HG23, Norwalk virus (replicon) GT1, HG23, Table 10
[11] = RAW267.4, Neutral Red (Cytopathology)
[12] = Human immunodeficiency virus 1, OM-10.1

In the case of CC#CC1(O)CCC2C3CCC4=CC(=NNC(=S)Nc5ccccc5)CCC4=C3C(c3ccc4c(c3)OCO4)CC21C.CC#CC1(O)CCC2C3CCC4=CC(=O)CCC4=C3C(c3ccc4c(c3)OCO4)CC21C (mixture of isomers) [PT156, 1/17(11β,17β)-17-Hydroxy-11-[3,4-(methylenedioxy)phenyl]-17-(1-propyn-1-yl)estra-4,9-dien-3-one (ORG34517)×(2EZ)-2-{(11β,17β)-17-hydroxy-11-[3,4-(methylenedioxy)phenyl]-17-(1-propyn-1-yl)estra-4,9-dien-3-ylidene}-N-phenylhydrazinecarbothioamide [74.1% (E), 25.9% (Z)] 11/17hydrate], the EC90 ([1]; RNA Hybridization (Replicon), NV GT1, HG23, Example 10) is reported as over 100 µM, the EC50 ([1]; RNA Hybridization (Replicon), NV GT1, HG23, Example 10, unit from Conc. Range) is reported as over 100 µM and the CC50 (HG23) is reported as over 100 µM. For the same molecule, the EC90 (MNV MNV-1; Neutral Red (Cytopathology)) was 0.29 µM, the EC50 (MNV MNV-1; Neutral Red (Cytopathology)) was 0.091 µM and the CC50 (RAW267.4) was 33 µM.
C[C@@]1(O)[C@H](O)[C@@H](CO)O[C@H]1n1ccc(N)nc1=O [2′-C-methylcytidine (RS-446), 2′-C-methylcytidine, reference compound] showed an EC50 [1, 10] of 6.9 µM, an EC90 [1, 10] of 18 µM and an EC90 ([1]; Norwalk virus, GT1, HG23, RNA Hybridization (Replicon), NV GT1, HG23, Example 10) of 19 µM. The EC50 ([1]; Norwalk virus, GT1, HG23, RNA Hybridization (Replicon), NV GT1, HG23, Example 10, unit from Conc. Range) was 6.4 µM, the CC50 (in vitro [2]) was over 300 µM and the EC90 (MNV MNV-1; [11]) was 3.1 µM. The EC50 (MNV MNV-1; [11]) was 1 µM, the CC50 [3] was over 30 µM and the “TaqMan RT-qPCR threshold cycle value difference (ΔCT) of HCV replicon RNA synthesis” value [4] was 5.72. The “Inhibition of HCV replicon RNA syntheses at the fixed concentration of 10 μM of the test compound” value ([4]; HuH-7 clone B) was 98.08% and the “Inhibition of cellular ribosomal RNA (rRNA) synthesis at the fixed concentration of 10 μM of the test compound” value [5] was 31.09%.
For O=c1c2ccccc2n2nnc3ccc(NCCCN4CCN(CCCNc5ccc6nnn7c8ccccc8c(=O)c5c67)CC4)c1c32 [Temacrazine (TMZ)], the “% CC” value (OM-10.1 cells; 0.10 nM) was 108.4%, the “TOXICITY VALUES (Cell Titer 96)” value (OM-10.1 cells; 0.10 nM) was 0.727 O.D. @ 490/650 nm and 0.895 O.D. @ 490/650 nm and 0.621 O.D. @ 490/650 nm and the “% CC” value (OM-10.1 cells; 1.00 nM) was 109.3%. The “TOXICITY VALUES (Cell Titer 96)” value (OM-10.1 cells; 1.00 nM) was 0.781 O.D. @ 490/650 nm and 0.744 O.D. @ 490/650 nm and 0.736 O.D. @ 490/650 nm, the “% CC” value (OM-10.1 cells; 3.16 nM) was 126.3% and the “TOXICITY VALUES (Cell Titer 96)” value (OM-10.1 cells; 3.16 nM) was 0.830 O.D. @ 490/650 nm and 0.933 O.D. @ 490/650 nm and 0.849 O.D. @ 490/650 nm. The “% CC” value (OM-10.1 cells; 10.0 nM) was 137.0%, the “TOXICITY VALUES (Cell Titer 96)” value (OM-10.1 cells; 10.0 nM) was 0.882 O.D. @ 490/650 nm and 0.999 O.D. @ 490/650 nm and 0.954 O.D. @ 490/650 nm and the “% CC” value (OM-10.1 cells; 31.6 nM) was 138.1%. The “TOXICITY VALUES (Cell Titer 96)” value (OM-10.1 cells; 31.6 nM) was 0.967 O.D. @ 490/650 nm and 0.902 O.D. @ 490/650 nm and 0.988 O.D. @ 490/650 nm, the “% CC” value (OM-10.1 cells; 100 nM) was 138.2% and the “TOXICITY VALUES (Cell Titer 96)” value (OM-10.1 cells; 100 nM) was 0.917 O.D. @ 490/650 nm and 0.990 O.D. @ 490/650 nm and 0.952 O.D. @ 490/650 nm. The “% CC” value (OM-10.1 cells; 316 nM) was 136.7%, the “TOXICITY VALUES (Cell Titer 96)” value (OM-10.1 cells; 316 nM) was 0.977 O.D. @ 490/650 nm and 1.037 O.D. @ 490/650 nm and 0.813 O.D. @ 490/650 nm and the “% CC” value (OM-10.1 cells; 1000 nM) was 129.9%. The “TOXICITY VALUES (Cell Titer 96)” value (OM-10.1 cells; 1000 nM) was 0.897 O.D. @ 490/650 nm and 0.910 O.D. @ 490/650 nm and 0.879 O.D. @ 490/650 nm, the “TC 90%” value (OM-10.1 cells; OM-10.1) was over 1 µM and the “TC 95%” value (OM-10.1 cells; OM-10.1) was over 1 µM. For the same molecule, the CC50 (OM-10.1 cells; read-out: TC 50%, OM-10.1) was over 1 µM, the CC50 [6] was over 1 µM and the “% VC” value (HIV-1 LAV; 0.10 nM) was 96.8%. The “RT Values” (HIV-1 LAV; 0.10 nM) was 30380 cpm and 31745 cpm and 26409 cpm, the “% VC” value (HIV-1 LAV; 1.00 nM) was 87.9% and the “RT Values” (HIV-1 LAV; 1.00 nM) was 32770 cpm and 23041 cpm and 24504 cpm. For the same molecule, the “% VC” value (HIV-1 LAV; 3.16 nM) was 92.4%, the “RT Values” (HIV-1 LAV; 3.16 nM) was 30588 cpm and 25259 cpm and 28648 cpm and the “% VC” value (HIV-1 LAV; 10.0 nM) was 99.6%. For the same molecule, the “RT Values” (HIV-1 LAV; 10.0 nM) was 27453 cpm and 31623 cpm and 31990 cpm, the “% VC” value (HIV-1 LAV; 31.6 nM) was 87.0% and the “RT Values” (HIV-1 LAV; 31.6 nM) was 25515 cpm and 24677 cpm and 29321 cpm. For the same molecule, the “% VC” value (HIV-1 LAV; 100 nM) was 37.5%, the “% VC” value (HIV-1 LAV; 316 nM) was 22.7% and the “RT Values” (HIV-1 LAV; 316 nM) was 6512 cpm and 5272 cpm and 8986 cpm. The “% VC” value (HIV-1 LAV; 1000 nM) was 2.0%, the EC50 (HIV-1 LAV; Human immunodeficiency virus 1) was 0.07 µM and the EC90 (HIV-1 LAV; Human immunodeficiency virus 1) was 0.64 µM. For the same molecule, the IC50 (HIV-1 LAV; [12]) was 0.0748 µM, the IC90 (HIV-1 LAV; [12]) was 0.641 µM and the “IC 95%” value (HIV-1 LAV; OM-10.1) was 0.847 µM. The “Selectivity Index (CC50/EC50)” value (HIV-1 LAV; OM-10.1, Table 7) was over 0.13.
Molecule C[C@@H]1C[C@@H]([C@H](O)CC2CC(=O)NC(=O)C2)C(=O)[C@@H](C)C1 [Cycloheximide] has a CC50 (in vitro [7]) of 0.5 µM, a CC50 (in vitro [8]) of 0.2 µM and a CC50 [9] of 0.6 µM. It also gave a CC50 (Cytotoxicity on CCRF-CEM) of 0.1 µM.
